Reference: patent US4407798A, “Cephem compounds” (Fujisawa Pharmaceutical Co., Ltd., priority 1980, dated 1983)
Values after ≈ are worked out from the molar mass of the structure shown.

Tested on: Escherichia coli 31
Experiment: In vitro antimicrobial activity, two-fold agar-plate dilution method (MIC)
Type: cell-based
Conditions: HI-agar, 37° C., 20 hours
Protocol: Now in order to show the utility of the object compounds (I), the test data on the in vitro antimicrobial activity of some representative compounds (I) of this invention are shown in the following. Test: In vitro Antimicrobial Activity.
In vitro Antimicrobial activity was determined by the two-fold agar-plate dilution method as described below.
One loopful of an overnight culture of each test strain in Tripticase-soy broth (approximately 10^8 viable cells per ml) was streaked on heart infusion agar (HI-agar) containing graded concentrations of antimicrobial agents, and the minimal inhibitory concentration (MIC) was expressed in term of μg/ml after incubation at 37° C. for 20 hours.

| Structure (SMILES) | MIC [µg/mL] |
| --- | --- |
| C#CCO/N=C(\C(=O)NC1C(=O)N2C(C(=O)[O-])=C(C[n+]3ccccc3)CSC12)c1nccc(N)n1 (stereo not drawn) [Compound D, 7-[2-Propargyloxyimino-2-(4-aminopyrimidin-2-yl)acetamido]-3-(1-pyridiniomethyl)-3-cephem-4-carboxylate (syn isomer)] | 0.05 (≈ 0.101 µM) |
| CCO/N=C(\C(=O)NC1C(=O)N2C(C(=O)[O-])=C(C[n+]3ccccc3)CSC12)c1nccc(N)n1 (stereo not drawn) [Compound C, 7-[2-Ethoxyimino-2-(4-aminopyrimidin-2-yl)acetamido]-3-(1-pyridiniomethyl)-3-cephem-4-carboxylate (syn isomer)] | 0.05 (≈ 0.103 µM) |
| CSCO/N=C(\C(=O)NC1C(=O)N2C(C(=O)[O-])=C(C[n+]3ccccc3)CSC12)c1nccc(N)n1 (stereo not drawn) [Compound B, 7-[2-Methylthiomethoxyimino-2-(4-aminopyrimidin-2-yl)acetamido]-3-(1-pyridiniomethyl)-3-cephem-4-carboxylate (syn isomer)] | 0.05 (≈ 0.097 µM) |
| Nc1ccnc(/C(=N/OC2CCCC2)C(=O)NC2C(=O)N3C(C(=O)[O-])=C(C[n+]4ccccc4)CSC23)n1 (stereo not drawn) [Compound A, 7-[2-Cyclopentyloxyimino-2-(4-aminopyrimidin-2-yl)acetamido]-3-(1-pyridiniomethyl)-3-cephem-4-carboxylate (syn isomer)] | 0.05 (≈ 0.0955 µM) |
